{"source": "paper PMC11947346", "about": "“Synthesis and preclinical evaluation of gastrin releasing peptide receptor antagonist [^18F]MeTz-PEG2-RM26 for positron emission tomography” (EJNMMI Radiopharmacy and Chemistry, 2025)", "key": {"[1]": {"target": "T1, GRPR-expressing PC-3 cells (Homo sapiens, UniProt P30550)", "T1 construct": "investigated using GRPR-expressing PC-3 cells; endogenous in cells; host or cells: PC-3 cells", "T1 sequence (P30550 whole entry)": "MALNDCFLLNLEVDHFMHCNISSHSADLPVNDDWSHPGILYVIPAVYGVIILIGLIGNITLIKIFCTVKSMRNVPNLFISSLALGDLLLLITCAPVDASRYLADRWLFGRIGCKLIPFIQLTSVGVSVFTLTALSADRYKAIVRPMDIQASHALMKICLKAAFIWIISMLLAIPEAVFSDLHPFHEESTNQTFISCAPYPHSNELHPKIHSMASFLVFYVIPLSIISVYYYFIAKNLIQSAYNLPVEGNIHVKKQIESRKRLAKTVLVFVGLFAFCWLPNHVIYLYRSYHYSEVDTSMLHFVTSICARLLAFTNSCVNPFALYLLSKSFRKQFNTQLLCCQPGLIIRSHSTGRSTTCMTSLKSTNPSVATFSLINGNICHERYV", "experiment": "In vitro binding to GRPR with and without preblocking of GRPR", "type": "cell-based", "conditions": "8–10 nM radioligand, 1 h at 37 °C, preblocking with 1 µM NOTA-PEG2-RM26 for 10 min at rt, n = 3, P < 0.0001", "protocol": "PC-3 cells (1 × 10^6 cells/well) were seeded on 6-well dishes one day before the experiment. On the day of the experiment, a set of wells was incubated with 1 µM/well of NOTA-PEG2-RM26 for 10 min at rt to block GRPR. After incubation, 8–10 nM (1.2–17.5 kBq) of [^18F]MeTz-PEG2-RM26 (8a) was added to the pretreated and non-treated wells, and the cells were incubated for 1 h at 37 °C. Thereafter, cells were detached using trypsin-EDTA (ethylenediaminetetraacetic acid), collected, and measured for their radioactivity content. The internalisation assay was done after 1 h of incubation as previously described (Varasteh et al. [2013b])."}, "[2]": {"protocol": "[^18F]MeTz-TCO-PEG2-RM26 (8a) (330 pmol, 1.2 MBq) was added and the tube was vortexed for 2 min. The tube was centrifuged for 20 s to separate the phases. Fractions of each phase were collected and the radioactivity content was measured."}, "in vivo": {"experiment": "in vivo", "conditions": "mouse, total radioactivity; for tissue uptake at 1 h / tissue uptake at 2 h / tissue to tissue ratio at 1 h / tissue to tissue ratio at 2 h: Balb/c nu/nu, 48 pmol; for tissue uptake dose at 0.5 h / tissue uptake at 0.5 h: NMRI; for tissue uptake at 0.5 h: NMRI mice, 30 min pi", "protocol": "(§1) [^18F]MeTz-PEG2-RM26 (8a) (30 kBq, 40 pmol) was evaluated in NMRI mice to assess the biodistribution in normal organs. A group of NMRI mice (n = 3) was additionally co-injected with 5 nmol of NOTA-PEG2-RM26 to block GRPR. Mice were euthanised at 30 min post-injection (pi) and the organs of interest were collected, weighed, and measured for their radioactivity content. Further, Balb/c nu/nu mice (4 mice in each group) were used to evaluate the uptake in normal organs and the GRPR-expressing tumour model (PC-3). In short, 7 × 10^6 freshly harvested PC-3 cells were suspended in 100 µl sterile PBS and were implanted subcutaneously at the right hind leg of each mouse. […] [^18F]MeTz-PEG2-RM26 (8a) (120 kBq, 48 pmol) was injected and mice were euthanised at predetermined time points of 1 and 2 h pi. An additional group was co-injected with 5 nmol of NOTA-PEG2-RM26 to block GRPR and was euthanized at 2 h pi. The collected organs were weighed and the radioactivity content was measured in each organ."}, "[3]": {"tested_on": "GRPR-expressing PC-3 xenografts", "experiment": "in vivo", "conditions": "PC-3 xenografted Balb/c nu/nu mice, 2 h pi, blocked: co-injected with 5 nmol NOTA-PEG2-RM26, mean ± SD, n = 4", "protocol": "as §1"}, "NMRI mice": {"tested_on": "NMRI mice", "experiment": "in vivo", "protocol": "as §1"}, "GRPR": {"target": "T2, GRPR (Homo sapiens, UniProt P30550)", "T2 construct": "investigated using GRPR-expressing PC-3 cells; endogenous in cells; host or cells: PC-3 cells", "T2 sequence (P30550 whole entry)": "as above", "experiment": "In vitro competitive binding assay against [^125I]I-Tyr^4-BBN; IC50 determination", "conditions": "PC-3 cells", "protocol": "The half maximal inhibitory concentration (IC50) was determined for F-MeTz-PEG2-RM2 (8b), Ga-loaded NOTA-PEG2-RM26 (Varasteh et al. [2013b], [2015]) conjugate was used as a comparator. […] Briefly, 10^5 cells were incubated the day before. […] After incubation, the cells were collected, and their activity was measured."}, "[4]": {"conditions": "NMRI mice, 30 min pi, 40 pmol (30 kBq), non-blocked, mean ± SD, n = 3–4"}}}
{"smiles": "CC1=NNC(c2ccc(CNC(=O)c3ccc(F)nc3)cc2)=C2CCC[C@H](OC(=O)NCCOCCOCCC(=O)N[C@H](Cc3ccccc3)C(=O)N[C@@H](CCC(N)=O)C(=O)N[C@@H](Cc3c[nH]c4ccccc34)C(=O)N[C@@H](C)C(=O)N[C@H](C(=O)NCC(=O)N[C@@H](Cc3c[nH]cn3)C(=O)N[C@@H](CC(C)C)[C@@H](O)CC(=O)N[C@@H](CC(C)C)C(N)=O)C(C)C)CCC12", "note": "(stereo partly drawn) [8a]", "values": [{"measurement": "activity uptake upon target saturation (GRPR specificity)", "setting": "[1]", "result": "statistically significant reduction of activity uptake upon target saturation"}, {"measurement": "logP", "setting": "[2]", "result": "1.6 ± 0.2"}, {"measurement": "tissue uptake at 1 h", "setting": "in vivo; blood", "result": "2.5 ± 0.4", "unit": "%ID/g"}, {"measurement": "tissue uptake at 2 h", "setting": "in vivo; blood", "result": "1.8 ± 0.6", "unit": "%ID/g"}, {"measurement": "tissue uptake at 1 h", "setting": "in vivo; bone", "result": "0.8 ± 0.2", "unit": "%ID/g"}, {"measurement": "tissue uptake at 2 h", "setting": "in vivo; bone", "result": "0.6 ± 0.04", "unit": "%ID/g"}, {"measurement": "tissue uptake at 1 h", "setting": "in vivo; kidneys", "result": "2.4 ± 0.1", "unit": "%ID/g"}, {"measurement": "tissue uptake at 2 h", "setting": "in vivo; kidneys", "result": "1.9 ± 0.7", "unit": "%ID/g"}, {"measurement": "tissue uptake at 1 h", "setting": "in vivo; liver", "result": "12 ± 2", "unit": "%ID/g"}, {"measurement": "tissue uptake at 2 h", "setting": "in vivo; liver", "result": "7 ± 2", "unit": "%ID/g"}, {"measurement": "tissue uptake at 1 h", "setting": "in vivo; lungs", "result": "1.3 ± 0.1", "unit": "%ID/g"}, {"measurement": "tissue uptake at 2 h", "setting": "in vivo; lungs", "result": "1.5 ± 0.8", "unit": "%ID/g"}, {"measurement": "tissue uptake at 1 h", "setting": "in vivo; muscle", "result": "0.33 ± 0.04", "unit": "%ID/g"}, {"measurement": "tissue uptake at 2 h", "setting": "in vivo; muscle", "result": "0.3 ± 0.1", "unit": "%ID/g"}, {"measurement": "tissue uptake at 1 h", "setting": "in vivo; pancreas", "result": "16 ± 1", "unit": "%ID/g"}, {"measurement": "tissue uptake at 2 h", "setting": "in vivo; pancreas", "result": "17 ± 4", "unit": "%ID/g"}, {"measurement": "tissue uptake at 1 h", "setting": "in vivo; small intestine", "result": "6 ± 3", "unit": "%ID/g"}, {"measurement": "tissue uptake at 2 h", "setting": "in vivo; small intestine", "result": "4 ± 3", "unit": "%ID/g"}, {"measurement": "tissue uptake at 1 h", "setting": "in vivo; spleen", "result": "0.9 ± 0.2", "unit": "%ID/g"}, {"measurement": "tissue uptake at 2 h", "setting": "in vivo; spleen", "result": "0.8 ± 0.6", "unit": "%ID/g"}, {"measurement": "tissue uptake at 1 h", "setting": "in vivo; tumour (PC-3 xenograft)", "result": "2.4 ± 0.1", "unit": "%ID/g"}, {"measurement": "tissue uptake at 2 h", "setting": "in vivo; tumour (PC-3 xenograft)", "result": "2.7 ± 0.5", "unit": "%ID/g"}, {"measurement": "tissue to tissue ratio at 1 h", "setting": "in vivo; tumour / blood", "result": "0.97 ± 0.1"}, {"measurement": "tissue to tissue ratio at 2 h", "setting": "in vivo; tumour / blood", "result": "1.5 ± 0.2"}, {"measurement": "tissue to tissue ratio at 1 h", "setting": "in vivo; tumour / bone", "result": "3.2 ± 0.5"}, {"measurement": "tissue to tissue ratio at 2 h", "setting": "in vivo; tumour / bone", "result": "5 ± 1"}, {"measurement": "tissue to tissue ratio at 1 h", "setting": "in vivo; tumour / kidneys", "result": "0.99 ± 0.08"}, {"measurement": "tissue to tissue ratio at 2 h", "setting": "in vivo; tumour / kidneys", "result": "1.6 ± 0.6"}, {"measurement": "tissue to tissue ratio at 1 h", "setting": "in vivo; tumour / liver", "result": "0.2 ± 0.02"}, {"measurement": "tissue to tissue ratio at 2 h", "setting": "in vivo; tumour / liver", "result": "0.4 ± 0.1"}, {"measurement": "tissue to tissue ratio at 1 h", "setting": "in vivo; tumour / lungs", "result": "1.9 ± 0.1"}, {"measurement": "tissue to tissue ratio at 2 h", "setting": "in vivo; tumour / lungs", "result": "2.2 ± 1"}, {"measurement": "tissue to tissue ratio at 1 h", "setting": "in vivo; tumour / muscle", "result": "7.4 ± 0.7"}, {"measurement": "tissue to tissue ratio at 2 h", "setting": "in vivo; tumour / muscle", "result": "12 ± 4"}, {"measurement": "tissue to tissue ratio at 1 h", "setting": "in vivo; tumour / pancreas", "result": "0.15 ± 0.02"}, {"measurement": "tissue to tissue ratio at 2 h", "setting": "in vivo; tumour / pancreas", "result": "0.17 ± 0.05"}, {"measurement": "tissue to tissue ratio at 1 h", "setting": "in vivo; tumour / small intestine", "result": "0.5 ± 0.2"}, {"measurement": "tissue to tissue ratio at 2 h", "setting": "in vivo; tumour / small intestine", "result": "0.7 ± 0.3"}, {"measurement": "tissue to tissue ratio at 1 h", "setting": "in vivo; tumour / spleen", "result": "2.6 ± 0.5"}, {"measurement": "tissue to tissue ratio at 2 h", "setting": "in vivo; tumour / spleen", "result": "4 ± 2"}, {"measurement": "tissue uptake at 1 h", "setting": "in vivo; tumour", "result": "2.4 ± 0.1", "unit": "%ID/g"}, {"measurement": "tissue uptake dose at 0.5 h", "setting": "in vivo; GI tract with content (whole intestine), 40 pmol", "result": "38 ± 4", "unit": "%ID"}, {"measurement": "tissue uptake dose at 0.5 h", "setting": "in vivo; GI tract with content", "result": "32 ± 4", "unit": "%ID"}, {"measurement": "tissue uptake at 0.5 h", "setting": "in vivo; blood, 40 pmol, activity uptake in blood, 40 pmol (30 kBq), non-blocked, mean ± SD, n = 3–4", "result": "5 ± 1", "unit": "%ID/g"}, {"measurement": "tissue uptake at 0.5 h", "setting": "in vivo; blood, activity uptake in blood, 40 pmol, blocked: co-injected with 5 nmol NOTA-PEG2-RM26, mean ± SD, n = 3", "result": "4 ± 1", "unit": "%ID/g"}, {"measurement": "tissue uptake at 0.5 h", "setting": "in vivo; bone, 40 pmol, activity uptake in bone, 40 pmol (30 kBq), non-blocked, mean ± SD, n = 3–4", "result": "0.8 ± 0.1", "unit": "%ID/g"}, {"measurement": "tissue uptake at 0.5 h", "setting": "in vivo; bone, activity uptake in bone, 40 pmol, blocked: co-injected with 5 nmol NOTA-PEG2-RM26, mean ± SD, n = 3", "result": "0.7 ± 0.1", "unit": "%ID/g"}, {"measurement": "tissue uptake at 0.5 h", "setting": "in vivo; kidneys, activity uptake in kidneys, 40 pmol, blocked: co-injected with 5 nmol NOTA-PEG2-RM26, mean ± SD, n = 3", "result": "3.1 ± 0.6", "unit": "%ID/g"}, {"measurement": "tissue uptake at 0.5 h", "setting": "in vivo; liver, 40 pmol, activity uptake in liver, 40 pmol (30 kBq), non-blocked, mean ± SD, n = 3–4", "result": "12 ± 0.7", "unit": "%ID/g"}, {"measurement": "tissue uptake at 0.5 h", "setting": "in vivo; liver, activity uptake in liver, 40 pmol, blocked: co-injected with 5 nmol NOTA-PEG2-RM26, mean ± SD, n = 3", "result": "12 ± 2", "unit": "%ID/g"}, {"measurement": "tissue uptake dose at 0.5 h", "setting": "in vivo; rest of the carcass, 40 pmol", "result": "15 ± 2", "unit": "%ID"}, {"measurement": "tissue uptake dose at 0.5 h", "setting": "in vivo; rest of the carcass", "result": "16 ± 4", "unit": "%ID"}, {"measurement": "tissue uptake at 0.5 h", "setting": "in vivo; spleen, 40 pmol, activity uptake in spleen, 40 pmol (30 kBq), non-blocked, mean ± SD, n = 3–4", "result": "1.4 ± 0.1", "unit": "%ID/g"}, {"measurement": "tissue uptake at 0.5 h", "setting": "in vivo; spleen, activity uptake in spleen, 40 pmol, blocked: co-injected with 5 nmol NOTA-PEG2-RM26, mean ± SD, n = 3", "result": "0.9 ± 0.2", "unit": "%ID/g"}, {"measurement": "tissue uptake dose at 0.5 h", "setting": "in vivo; whole body, 40 pmol", "result": "84 ± 7", "unit": "%ID"}, {"measurement": "activity uptake in pancreas", "setting": "[3]", "result": "4 ± 1", "unit": "%IA/g"}, {"measurement": "activity uptake in bone", "setting": "NMRI mice; [4]", "result": "0.8 ± 0.1", "unit": "%IA/g"}, {"measurement": "activity uptake in liver", "setting": "NMRI mice; [4]", "result": "12.0 ± 0.7", "unit": "%IA/g"}, {"measurement": "in vivo defluorination (stability of the fluorine-carbon bond)", "setting": "NMRI mice; judged from bone uptake in the biological evaluation in mice", "result": "no significant signs of in vivo defluorination"}]}
{"smiles": "CC1=NNC(c2ccc(CNC(=O)c3ccc(F)nc3)cc2)=C2CCC[C@H](OC(=O)NCCOCCOCCC(=O)N[C@H](Cc3ccccc3)C(=O)N[C@@H](CCC(N)=O)C(=O)N[C@@H](Cc3c[nH]c4ccccc34)C(=O)N[C@@H](C)C(=O)N[C@H](C(=O)NCC(=O)N[C@@H](Cc3c[nH]cn3)C(=O)N[C@@H](CC(C)C)[C@@H](O)CC(=O)N[C@@H](CC(C)C)C(N)=O)C(C)C)CCC12", "note": "(stereo partly drawn) [8b]", "values": [{"measurement": "decrease in binding affinity versus Ga-NOTA-PEG2-RM26 (IC50 ratio)", "setting": "GRPR", "result": 6.8, "unit": "fold"}]}
